For 18 molecules, Ki results are on record in ChEMBL document CHEMBL2150919, “Benzenesulfonyl and Benzenesulfonamide as Modulators of the 5-HT6 Receptor: Patent Highlight” (ACS Med Chem Lett, 2012).

This test addresses 5-hydroxytryptamine receptor 6 (Homo sapiens, UniProt P50406). Briefly: Displacement of [3H]-lysergic acid diethylamine from human recombinant 5-HT6 receptor. In general terms: In a radioligand displacement assay an active substance lowers the binding of a labelled ligand.

5-hydroxytryptamine receptor 6, sequence (P50406 whole entry): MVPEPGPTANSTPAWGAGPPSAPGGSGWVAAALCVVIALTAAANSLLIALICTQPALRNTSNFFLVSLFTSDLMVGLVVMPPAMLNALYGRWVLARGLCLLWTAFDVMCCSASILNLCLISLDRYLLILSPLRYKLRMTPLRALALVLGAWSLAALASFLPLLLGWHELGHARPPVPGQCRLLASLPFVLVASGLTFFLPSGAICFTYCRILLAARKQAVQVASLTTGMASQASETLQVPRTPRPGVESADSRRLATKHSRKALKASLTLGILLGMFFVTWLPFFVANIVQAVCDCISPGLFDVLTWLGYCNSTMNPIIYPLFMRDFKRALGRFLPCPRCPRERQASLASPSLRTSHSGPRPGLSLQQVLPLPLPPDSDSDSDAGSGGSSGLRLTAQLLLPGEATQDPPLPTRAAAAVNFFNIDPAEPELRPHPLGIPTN

A word on the Ki: it is a dissociation constant, usually derived from enzyme kinetics or from competition with a known ligand. `COCc1ccccc1NS(=O)(=O)c1ccc(OC)c(N2CCN(C)CC2)c1`: the inhibition constant Ki was less than 10 nM.

Regarding `CCOc1ccc(S(=O)(=O)Nc2cccc(COC)c2)cc1N1CCN(C)CC1`, the inhibition constant (Ki) is less than 10 nM.

Take `COCc1ccc(NS(=O)(=O)c2ccc(OC)c(N3CCNCC3)c2)cc1`: the Ki is less than 100 nM.

In the case of `COc1ccc(S(=O)(=O)Nc2cccc(C(C)OC)c2)cc1N1CCNCC1` (stereo not drawn), the Ki is less than 20 nM.

For the molecule `CCOCc1cccc(NS(=O)(=O)c2ccc(OC)c(N3CCNCC3)c2)c1`, the inhibition constant Ki was less than 10 nM.

As to `COCc1ccccc1NS(=O)(=O)c1ccc(C)c(N2CCN(C)CC2)c1`, the Ki was less than 100 nM.

For `COCc1cccc(NS(=O)(=O)c2ccc(C)c(N3CCNCC3)c2)c1`, the Ki was less than 10 nM.

As for `COCc1cccc(NS(=O)(=O)c2ccc(OC)c(N3CCN(C)CC3)c2)c1`, the Ki was less than 10 nM.

`COCc1cccc(N(C)S(=O)(=O)c2ccc(OC)c(N3CCNCC3)c2)c1`: the Ki was less than 100 nM.

In the case of `CCOc1ccc(S(=O)(=O)Nc2cccc(COC)c2)cc1N1CCNCC1`, the inhibition constant (Ki) is less than 10 nM.

Regarding `COCc1cccc(NS(=O)(=O)c2ccc(OC)c(N3CCCNCC3)c2)c1`, the Ki is less than 20 nM.

As to `CCOc1ccc(S(=O)(=O)Nc2ccccc2COC)cc1N1CCNCC1`, the Ki was less than 10 nM.

Regarding `COc1ccc(S(=O)(=O)Nc2cccc(COCC(F)(F)F)c2)cc1N1CCNCC1`, the inhibitory constant (Ki) was less than 10 nM.

As to `COCc1cccc(NS(=O)(=O)c2ccc(OC)c(N3CCNCC3)c2)c1`, the inhibitory constant (Ki) was less than 10 nM.

On to `COCc1ccccc1NS(=O)(=O)c1ccc(C)c(N2CCNCC2)c1`, for which the Ki is less than 100 nM.

As for `CCOc1ccc(S(=O)(=O)Nc2ccccc2COC)cc1N1CCN(C)CC1`, the Ki was less than 10 nM.

As for `COCc1cccc(NS(=O)(=O)c2ccc(C)c(N3CCN(C)CC3)c2)c1`, the Ki is less than 100 nM.

On to `COCc1ccccc1NS(=O)(=O)c1ccc(OC)c(N2CCNCC2)c1`, for which the Ki is less than 10 nM.
